Read-outs that look alike come from different tables or passages of the source.
Key:
[1] = tested on: rabbit fetus; conditions: cited from earlier work
[2] = tested on: Human Umbilical Vessel Endothelial cells (HUVEC); conditions: cited from earlier work
[3] = tested on: severely growth restricted fetus (fetal IUGR); test: Clinical case study: severe fetal IUGR treated with maternal IV hypertonic D-glucose bolus; type: in vivo, human
Description: At the outset, it is relevant to describe a clinical case study of successfully treating a severe case of fetal IUGR, during the years 1983-84, by the Author Inventor as a practicing ob/gyn. in India, as it is the basis for this writing of significant depth that aided the author inventor decades later to fully comprehend what was once successfully treated, but was only incompletely understood at that time.
They were well nourished and was from good socioeconomic background, and there were no obvious etiological factors, that could be accounted for the identified fetal IUGR. After monitoring the growth of the fetus by assessing fundal height (a clinical norm of fetal measure in the past) for 3-4 more weeks, it was confirmed that the uterine size was not progressing, and that the patient had severely growth restricted fetus. […] The patient had more frequent pre-natal follow ups, and the treatment was diligently continued with increments, as also the patient was admirably cooperative. Nearing term, they were delivered by elective cesarean section.
The observed fetal growth restriction was undoubtedly severe, but with mere hypertonic intravenous D-glucose treatment and no other (except for standard doses of prenatal vitamins and minerals), the […] delivered an AGA baby, who obviously had caught up with standard growth curve, as though glucose supplement alone, and nothing else was needed.

[4] = 25 G IV bolus over 3-5 minutes, cited from earlier work
[5] = tested on: all tissues types; conditions: cited from earlier work

For `O=C[C@H](O)[C@@H](O)[C@H](O)[C@H](O)CO` [D-glucose], the “reversal of growth restriction” value ([1]; Flake et al, natural runt rabbit fetus, solutions alone or in combination) is given as “did not reverse growth restriction”, the fetal weight ([1]; Mulvihill et al 1985, pregnant rabbit models, transamniotic) is given as “increase in fetal weight” and the CGMP accumulation [2] is given as “increased”. For the same molecule, the L-Arginine transport [2] was “increased”, the fetal growth response ([3]; 20% IV bolus 50 cc twice daily to the parent, observed in 2-3 weeks) was “undoubted and immediate catch up of fetal growth” and the “birth weight for gestational age” value ([3]; at delivery nearing term) was “appropriate for the gestational age (AGA)”. For the same molecule, the “Apgar score of the baby” value ([3]; elective cesarean nearing term after continued treatment with increments) was 10, the “adverse effects in the mother due to induced maternal hyperglycemia” value ([3]; throughout gestation) was “No adverse effects” and the “blood glucose level (peak)” value ([4]; at 15 minutes) was 175 mg %. For the same molecule, the blood glucose level ([4]; at 30 minutes) was 125 mg %, the blood glucose level ([4]; at 1 hour) was 75 mg % and the blood glucose level ([4]; during the second hour) was 70 mg %.

For `NCCCC[C@@H](N)C(=O)O` [D-lysine], the neovascular growth ([5]; all tissues types) is given as “induce neovascular growth”.

In the case of `NCCCC[C@H](N)C(=O)O` [monomeric lysine, lysine], the “biomass (cell population) expansion” value ([5]; compared to other physicochemical means) is given as “expand biomass (cell population) at the least possible time”.

In the case of insulin, the CGMP accumulation [2] is given as “increased” and the L-Arginine transport [2] is given as “increased”.

From patent US9555052B2, “Intrauterine fetal growth restriction—the biochemical rationale of treatment modalities including extraperitoneal transamniotic fetal supplements” (priority 2003, dated 2017)
